Assay results taken from article PMC6085350, “Small molecule inhibitors of RAS-effector protein interactions derived using an intracellular antibody fragment” (Nature Communications, 2018).

Target: T1, KRAS^G12V-GppNHp (Homo sapiens, UniProt P01116, G12V)
T1 construct: made in house; host or cells: E. coli (pGEX-2T; strain named only for the HRAS plasmids)
Experiment: waterLOGSY NMR binding
Experimental: The waterLOGSY NMR method[35] was used to measure RAS ligand interaction. WaterLOGSY experiments were conducted at a ^1H frequency of 600 MHz using a Bruker Avance spectrometer equipped with a BBI probe. All experiments were conducted at 298 K, 3 mm diameter NMR tubes with a sample final volume of 200 µl was used in all experiments. Solutions were buffered using an H2O 10 mM PBS, 5 mM MgCl2 buffer corrected to pH 7.4. The sample preparation is exemplified as follows, the compound (10 µl of a […] solution in DMSO-d6) was added to an eppendorf before sequential addition of the H2O PBS buffer (163.6 µl), D2O (20 µl), and protein (6.4 µl, 311.8 µM). The resulting solution was spun to ensure full mixing and transferred to a 3 mm NMR tube before running the experiment. For a competition experiment using Y6-scFv or VH, the preparation was carried out in a similar manner; the compound (10 µl of a 10 mM solution in DMSO-d6) was added to an eppendorf before sequential addition of the H2O PBS buffer (146.4 µl), D2O (20 µl), protein (6.4 µl, 311.8 µM) and Y6-ScFv (17.2 µl, 116.6 µM) with a ratio of 5.5:1:1. The resulting solution was spun and transferred to a 3 mm NMR tube before the run. Negative controls (compound alone, without the protein) were prepared in a similar manner, in order to obtain an end volume of 200 μl.
Supplementary Figure 3: Abd-2 WaterLOGSY NMR with and without anti RAS-scFV Abd-2 was analyzed by waterLOGSY. […]
binding of Abd-2 to KRAS -GppNHp (upper trace, in green) but poor binding to KRAS-GDP (middle trace, in red). The proton NMR spectrum of Abd-2 in the absence of protein is […]
shown in the lower trace. Panel b, WaterLOGSY of Abd-2 with KRAS -GppNHp in the presence or absence of scFv competitor respectively top (no binding of Abd-2 to the […]
KRAS -GppNHp + scFv complex) and middle spectra (binding to KRAS -GppNHp without scFv) in purple and red respectively. The lower spectra is the proton NMR of Abd -2 in the absence of protein. Results from panel b confirm the interference of binding by the […]
(1 picture or pasted object on this page, not shown here)
Supplementary Figure 6: Abd-7 Binding in WaterLOGSy and Kd calculations in CPMG WaterLOGSY and CPMG NMR orthogonal analysis of Abd-5 (panel a, b), Abd-6 (c, d), and Abd-7 (e, f) with GST-KRASG12V-GppNHp. For each waterLOGSY profile, the proton NMR spectrum of the compound is shown together the spectra of the compound after incubation with the KRAS (the NOE transfers occurs when the compounds displace those waters upon binding to the protein). The Kd of interaction of the compounds come from fitting a binding curve (right of panels b, d, f) of a CPMG titration (shown on the left of panels b, d, f). The calculated Kd is shown for each compound.
(MW), Kd, Solubility and ligand efficiency (LE). […]

T1 sequence (P01116 1-188 isoform P01116-2 G12V): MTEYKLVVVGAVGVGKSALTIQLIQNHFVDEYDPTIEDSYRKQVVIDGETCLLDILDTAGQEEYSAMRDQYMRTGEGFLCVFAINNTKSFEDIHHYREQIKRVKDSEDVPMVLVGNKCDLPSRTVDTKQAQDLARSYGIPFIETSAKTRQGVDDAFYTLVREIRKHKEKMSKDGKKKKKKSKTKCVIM

Compound | binding to KRAS^G12V-GppNHp (waterLOGSY)
O=C(NCC1COc2ccccc2O1)c1ccco1 (stereo not shown) [Abd-2] | preferential binding
COc1cccc(-c2cccc3c2OC(CNC(=O)c2ccc(OCCN(C)C)cc2)CO3)n1 (stereo not shown) [Abd-5] | confirmed
COc1nc(-c2cccc3c2O[C@H](CNC(=O)C2CCOCC2)CO3)ccc1Nc1cccc(CN(C)C)c1 [Abd-6] | confirmed
COc1nc(-c2cccc3c2OCCO3)ccc1Nc1ccc(CN(C)C)cc1 [Abd-7] | confirmed
